“Also recorded” adds a separate entry of the source.
Assays:
YAP [1] = test: Anti-YAP immunofluorescence staining in A549 cells (YAP nuclear translocation); assay type: cell-based; conditions: anti-YAP antibody and DAPI
Text: FIG. 7H illustrates A549 cells treated with DMSO, EVG or PC(Positive compound) were stained with anti-YAP antibody and DAPI. […] Scale bar represents 40 μm.

SRC-1 phase separation = biological target: T1, SRC-1 phase separation (Homo sapiens, UniProt Q15788); test: High content image of mScarlet-SRC-1 puncta in H1299 cells; assay type: cell-based; conditions: 20 μM
T1 construct: expressed in transfected cells; host or cells: H1299
T1 sequence (Q15788 whole entry): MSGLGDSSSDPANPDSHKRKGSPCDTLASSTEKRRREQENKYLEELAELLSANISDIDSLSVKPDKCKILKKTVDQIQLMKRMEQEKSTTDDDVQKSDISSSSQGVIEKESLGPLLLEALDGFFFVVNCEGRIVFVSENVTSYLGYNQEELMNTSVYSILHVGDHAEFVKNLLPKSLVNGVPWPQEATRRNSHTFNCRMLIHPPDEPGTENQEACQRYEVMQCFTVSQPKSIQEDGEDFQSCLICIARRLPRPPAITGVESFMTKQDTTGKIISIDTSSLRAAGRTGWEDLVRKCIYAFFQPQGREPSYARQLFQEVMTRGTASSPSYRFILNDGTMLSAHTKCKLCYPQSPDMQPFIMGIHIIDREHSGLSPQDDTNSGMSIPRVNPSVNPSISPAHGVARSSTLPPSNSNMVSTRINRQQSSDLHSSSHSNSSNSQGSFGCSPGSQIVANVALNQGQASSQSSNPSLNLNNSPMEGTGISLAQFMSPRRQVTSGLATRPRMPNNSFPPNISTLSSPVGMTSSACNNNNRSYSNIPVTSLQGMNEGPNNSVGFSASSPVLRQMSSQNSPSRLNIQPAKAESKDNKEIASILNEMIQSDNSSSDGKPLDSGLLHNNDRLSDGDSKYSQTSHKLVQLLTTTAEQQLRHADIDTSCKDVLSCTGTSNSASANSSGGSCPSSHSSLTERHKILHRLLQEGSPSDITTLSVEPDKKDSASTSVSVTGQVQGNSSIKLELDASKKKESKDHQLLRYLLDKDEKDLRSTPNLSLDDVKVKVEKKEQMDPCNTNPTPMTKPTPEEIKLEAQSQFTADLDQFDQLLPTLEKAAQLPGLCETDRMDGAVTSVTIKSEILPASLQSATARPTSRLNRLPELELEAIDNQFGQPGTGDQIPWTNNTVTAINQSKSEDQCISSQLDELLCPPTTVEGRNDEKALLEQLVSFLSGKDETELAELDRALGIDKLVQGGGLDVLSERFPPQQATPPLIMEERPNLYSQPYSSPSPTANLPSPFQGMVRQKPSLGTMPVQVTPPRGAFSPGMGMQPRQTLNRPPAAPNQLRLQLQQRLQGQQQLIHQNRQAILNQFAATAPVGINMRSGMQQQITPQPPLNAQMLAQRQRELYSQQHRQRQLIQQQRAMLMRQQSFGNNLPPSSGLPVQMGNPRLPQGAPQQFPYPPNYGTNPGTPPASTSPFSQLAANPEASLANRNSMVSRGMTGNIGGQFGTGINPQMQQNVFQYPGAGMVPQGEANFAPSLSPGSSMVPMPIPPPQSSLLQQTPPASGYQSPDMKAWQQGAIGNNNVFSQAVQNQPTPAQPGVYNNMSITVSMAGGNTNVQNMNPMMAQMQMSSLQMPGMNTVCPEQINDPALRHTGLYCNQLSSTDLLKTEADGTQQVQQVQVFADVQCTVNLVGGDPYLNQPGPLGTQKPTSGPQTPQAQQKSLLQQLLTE
Experimental: FIG. 7Q illustrates quantification result of high content image data for mScarlet-SRC-1 puncta in H1299 cells treated w/o 20 μM EVG. ***p<0.001.
Eight hours after transfection, H1299 cells expressing mScarlet-SRC-1 were seeded in 24-well glass bottom plate (Cellvis P24-1.5H-N) and EVG was added two hours later. Images were obtained with the Operetta CLSTM high-content cell imaging analysis system (PerkinElmer Inc., Waltham, MA, USA). The 63× objective lens was applied in each condition. Data was analyzed by images collected from over 100 representative fields in each group. The spots quantification was performed based on the area and intensity of the spots through mScarlet channel. GraphPad Prism is used to plot and analyze the high content image results.

YAP [2] = test: YAP reporter cell-based screen of FDA-approved drugs (luciferase, qPCR validation); conditions: YAP reporter cell-based screen in a library of FDA-approved drugs
Text: FIG. 7B illustrates high-throughput screening results. 449 FDA-approved compounds were screened and evaluated by the z-factor of cell viability and luciferase activity (Blue dots: screened compounds; red dots: positive compounds). The screening criteria is luciferase z-factor <−4 and cell viability >−4. (Positive compound, PC: Fedratinib)
FIG. 7C illustrates qPCR analysis examining the expression of YAP-targeted CTGF and CYR61 was used to validate candidate positive compounds from the screening. Error bars show mean±s.e.m. (n=2).
FIG. 7D illustrates the qPCR analysis of YAP target genes in SF268 cells treated with DMSO or 20 µM EVG for 24 h. Error bars show mean±s.e.m. (n=3).
YAP binding sites were cloned into the NheI and HindIII sites of the pGL4.76 basic vector (Promega) containing heat shock basal promoter. Luciferase activity was measured using the Renilla-Glo® Luciferase Assay System (Promega). Cell viability was measured using CellTiter-Glo® One Solution Assay (Promega). Relative luciferase activity=luciferase activity/cell viability.
Cells were treated with compounds for indicated periods, then total RNAs were extracted with TRIzol™ Reagent (15596018, Invitrogen) and reverse-transcripted using the High efficient cDNA synthesis master mix (FSQ-301, TOYOBO). Quantitative RT-PCR was performed with […] SYBR® Premix Ex Taq™ (RR420, Takara). […]

A549 cells = test: Anti-proliferative effects in SRC-1 knockdown A549 cells; assay type: cell-based; conditions: SRC-1 knockdown vs control
Experimental: FIG. 7W illustrates the anti-proliferative effects of EVG in SRC1 knockdown and control cells. Data represent mean±s.e.m. (n=3).
After 6 days [or other time period as indicated] culture, cell viability was measured using CellTiter-Glo® Luminescent Cell Viability Assay (Promega, G7572) and DMSO group was used as normalization to calculate half maximal inhibitory concentration (IC50) using Graphpad Prism software.

YAP target genes = test: RNA-seq global gene expression profiles in SF268 cells; assay type: cell-based, human; conditions: 20 μM, 24 h
Experimental: FIG. 7E illustrates SF268 cells treated with EVG were subjected to RNA-seq analysis. GSEA enrichment plots of genes involved in Hippo/YAP signaling.
Total RNA of three biological replicates was extracted from SF268 cells 24 h after treated with 20 μM EVG/DMSO using TRIzol™ Reagent (15596018, Invitrogen). RNAseq libraries were prepared using the Illumina TruSeq RNA Sample Prep kit v2 and sequenced using the Illumina HiSeq Xten platform (150-bp paired-end reads). We mapped the RNA-seq sequencing reads to the human reference transcriptome (GRCh37.71) using HISAT259 version 2.0.1. Differentially expressed genes in elvitegravir-treatment group were identified with the R package DESeq.

YAP [3] = test: Western blotting / YAP phostag immunoblotting in SF268 cells; assay type: cell-based, human; conditions: 20 μM
Experimental: FIG. 7F illustrates SF268 cells were treated with 20 μM elvitegravir (EVG) or […] (PC) for the indicated times and subjected to western blotting analysis.
FIG. 7G illustrates SF268 cells treated with EVG or PC (fedratinib—an inhibitor of the non-receptor tyrosine kinase JAK2 which affects YAP nuclear translocation and phosphorylation) were examined by YAP phostag immunoblotting.

SRC-1 = test: Biotin-EVG competition pulldown and thermal shift assays; assay type: binding; conditions: Flag-SRC-1, biotin-EVG, increasing concentrations of EVG
Experimental: FIG. 7T illustrates the lysates from SF268 cells overexpressing Flag-SRC-1 were incubated with 20 μM biotin or biotin-EVG for streptavidin-beads pull-down assays.
FIG. 7U illustrates purified Flag-SRC1 protein was incubated with EVG-Biotin in the presence of increasing concentrations of EVG and further subjected to streptavidin-beads pull-down assays.
1 μg of purified recombinant protein Flag-SRC-1 was incubated with […] biotin-EVG/DMSO in the presence of increasing concentrations of Elvitegravir (20, 40, 100, 200 uM) for 30 min (RT) and was further incubated with streptavidin-agarose (20359, Thermo Fisher Scientific) for 20 min (RT). Washing beads with PBS (3×1.5 min). The precipitates were analyzed by western blot with anti-flag antibody.
Methods: Cells (SF268 cells and HEK293FT cells were transfected with expression vector of Flag-SRC-1) were harvested and lysed in lysis buffer (20 mM TrisHCl 7.5, 150 mM NaCl, 0.5% NP40, 5% glycerin, 1% proteinase Cocktail), and then incubated with 20 µM compound with biotin tag or DMSO for 40 min at room temperature. Then incubated with 100 μL streptavidin-agarose (20359, Thermo Fisher Scientific) for 30 min at RT. The beads were washed 4 times with lysis buffer ([…] 1.5 min). And the precipitates were analyzed by western blot with anti-flag antibody. […]

COc1cc2c(cc1Cc1cccc(Cl)c1F)c(=O)c(C(=O)O)cn2[C@H](CO)C(C)C [EVG, 6-[(3-chloro-2-fluorophenyl)methyl]-1-[(2S)-1-hydroxy-3-methylbutan-2-yl]-7-methoxy-4-oxoquinoline-3-carboxylic acid]
YAP nuclear translocation (YAP [1]): remained in nucleus; also recorded: unaffected | SRC-1 phase separation, high content image (mScarlet-SRC-1 puncta) (SRC-1 phase separation): inhibitory effects | YAP activity (YAP [2]): suppress YAP activity | anti-proliferative effects after inducible knockdown of SRC-1 (A549 cells): partially resistant | YAP target genes, global gene expression profiles (YAP target genes): downregulates | phosphorylation pattern in YAP (YAP [3]): unaffected | binding to SRC-1, competition pulldown and thermal shift (SRC-1): both direct and specific

From US20240125768A1, “METHODS FOR MODULATING A SRC-1 CONDENSATE” (ETERN BIOPHARMA (SHANGHAI) CO., LTD., priority 2021, published 2024)
